Earlier results as cited in patent US20070042953A1, “Antiepileptogenic complex of albumin with docosahexaenoate” (priority 2005, published 2007).

Legend:
[1] = system: patients with chronic epilepsy; conditions: nutritional supplementation, first 6 weeks
[2] = system: rat brain cells or hippocampal slices

Q: Which seizure frequency [1] does the source give for CCC=CCC=CCC=CCC=CCC=CC/C=C\CCC(=O)[O-].[Na+] [DHA, cis-4,7,10,13,16,19-Docosahexaenoic acid, sodium salt] here?
A: reduce seizure frequency in the first 6 weeks, but the effect was not sustained

Q: What about the “epileptic activity in vitro” value [2] of the same molecule?
A: attenuate epileptic activity
